Like-named read-outs stand apart in the source and are kept apart here.
Tests used:
CYP2A6 = biological target: T1, CYP2A6 (Homo sapiens, UniProt P11509); test: CYP2A6 inhibition in human liver microsomes; assay type: in vitro ADME; details: ultrapooled human liver microsomes 0.2 mg/mL, 2.5 μM coumarin, β-amanitin 0.1–100 μM, pH 7.4, 37 °C, 15 min, LC-MS/MS, n = 3, read-out: IC50, CYP2A6 coumarin 7-hydroxylase
T1 construct: from tissue; host or cells: ultrapooled human liver microsomes
Description: (§1) β-amanitin inhibition (IC50 values) of CYP1A2, CYP2A6, CYP2B6, CYP2C8, CYP2C9, CYP2C19, CYP2D6, and CYP3A4 enzyme activities in HLMs were evaluated using LC-MS/MS and CYP substrates as previously described. Each incubation mixture was made up to a volume of 100 μL including HLMs (0.2 mg/mL), 50 mM potassium phosphate buffer (pH 7.4), 1.0 mM NADPH, 10 mM magnesium chloride, various concentrations of β-amanitin (0.1–100 μM), a cocktail of seven CYP probe substrates (50 μM phenacetin for CYP1A2, 2.5 μM coumarin for CYP2A6, 2 μM amodiaquine for CYP2C8, 10 μM diclofenac for CYP2C9, 100 μM [S]-mephenytoin for CYP2C19, 5 μM bufuralol for CYP2D6, and 2.5 μM midazolam for CYP3A4 in acetonitrile), or 50 μM bupropion for CYP2B6. The reactions were initiated with NADPH followed by incubation in a shaking water bath at 37 °C for 15 min with or without 30 min preincubation with NADPH. Reactions were stopped with 50 μL of ice-cold methanol containing ^13C2, ^15N-acetaminophen and d9-1′-hydroxybufuralol (ISs). Incubation mixtures were centrifuged at 13,000× g for 8 min at 4 °C. An aliquot (5 μL) of the supernatant from the reaction mixture was analyzed by the previous LC-MS/MS method.

CYP2C19 = biological target: T2, CYP2C19 (Homo sapiens, UniProt P33261); test: CYP2C19 inhibition in human liver microsomes; assay type: in vitro ADME; details: ultrapooled human liver microsomes 0.2 mg/mL, 100 μM [S]-mephenytoin, β-amanitin 0.1–100 μM, pH 7.4, 37 °C, 15 min, LC-MS/MS, n = 3, read-out: IC50, CYP2C19 [S]-mephenytoin 4′-hydroxylase
T2 construct: from tissue; host or cells: ultrapooled human liver microsomes
T2 sequence (P33261 whole entry): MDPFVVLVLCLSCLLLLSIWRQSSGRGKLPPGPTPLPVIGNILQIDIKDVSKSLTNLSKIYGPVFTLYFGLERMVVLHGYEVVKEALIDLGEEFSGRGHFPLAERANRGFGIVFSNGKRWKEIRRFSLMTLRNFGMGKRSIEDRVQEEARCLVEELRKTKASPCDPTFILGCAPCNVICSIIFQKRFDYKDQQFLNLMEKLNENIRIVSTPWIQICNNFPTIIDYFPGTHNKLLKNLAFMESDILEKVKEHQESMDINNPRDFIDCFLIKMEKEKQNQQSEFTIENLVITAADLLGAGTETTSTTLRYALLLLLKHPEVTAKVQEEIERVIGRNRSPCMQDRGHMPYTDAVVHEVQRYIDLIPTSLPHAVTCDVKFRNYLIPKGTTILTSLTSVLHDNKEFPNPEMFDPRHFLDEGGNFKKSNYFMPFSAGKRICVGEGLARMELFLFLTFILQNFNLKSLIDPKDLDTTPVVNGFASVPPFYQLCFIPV
Description: as §1

[1] = Toxicokinetics after oral administration in mice; assay type: in vivo; details: male ICR mice; for bioavailability / Tmax / Cmax / half-life / AUC(0-inf) / AUC(0-t): mouse; for bioavailability / Tmax / Cmax / AUC(0-inf) / AUC(0-t): plasma; for bioavailability: (dose normalized AUCPO/dose normalized AUCIV) × 100, mean ± SD, read-out: F (oral bioavailability); for Tmax: median with range in parentheses; for Cmax: fasted; for Cmax / AUC(0-inf) / AUC(0-t): LC-HRMS; for Cmax / half-life / AUC(0-inf) / AUC(0-t): mean ± SD; for half-life: plasma elimination half-life; for AUC(0-inf) / AUC(0-t): non-compartmental
Description: The Institutional Animal Care and Use Committee of the Catholic University of Korea (approval number, CUK-IACUC-2021-004; approval date, 21 March 2021) approved the study protocol. Male ICR mice (8 weeks of age, 27.4 ± 2.3 g) were purchased from Orient Bio Inc. (Seongnam, Korea). Mice were kept in plastic cages with unlimited access to a standard mouse diet (Orient Bio) and water before the experiments. For oral administration, mice were fasted for at least 12 h but allowed free access to water.
β-amanitin was dissolved in water and administered to mice by gavage at doses of 2 (n = 7), 5 (n = 9), and 10 (n = 7) mg/kg. Blood samples (approximately 15 μL) were collected from the retro-orbital plexus under light anesthesia with isoflurane at 0.033, 0.083, 0.166, 0.25, 0.5, 0.75, 1, 1.5, 2, 4, 6, and 8 h after drug administration. Plasma samples (5 μL each) were harvested by centrifugation at 13,000× g for 3 min at 4 °C and stored at −80 °C until analysis.
Concentrations of β-amanitin in biological samples were evaluated following our previous methodology. The standard calibration curves for β-amanitin in mouse plasma ranged from 0.5 to 500 ng/mL and were linear, with a correlation coefficient of 0.9952. The inter- and intra-day accuracy and precision fell within the acceptance criteria (3.1–14.6% of coefficients of variation (CVs) and 92.5–115.0% of accuracy). The extraction recovery and matrix effect of this analytical method were 82.8–88.9% and 93.0–98.6%.
An aliquot (5 μL) of plasma sample was mixed with 15 μL of 4′-hydroxydiclofenac (internal standard (IS), 5 ng/mL) in methanol and vortexed for 2 min. The mixture was centrifuged at 13,000× g at 4 °C for 5 min, and the supernatant was then transferred to an autosampler vial. An aliquot (5 μL) was injected into the LC-HRMS system for analysis.
The toxicokinetic parameters of β-amanitin were analyzed by non-compartmental analyses (WinNonlin, Pharsight; Mountain View, CA, USA) (Table 1). Data were expressed as mean ± standard deviations (SD). Comparisons of data between groups were performed using one-way ANOVA or Student t-test. Values of p < 0.05 were considered statistically significant.

CYP2D6 = biological target: T3, CYP2D6 (Homo sapiens, UniProt P10635); test: CYP2D6 inhibition in human liver microsomes; assay type: in vitro ADME; details: ultrapooled human liver microsomes 0.2 mg/mL, 5 μM bufuralol, β-amanitin 0.1–100 μM, pH 7.4, 37 °C, 15 min, LC-MS/MS, n = 3, read-out: IC50, CYP2D6 bufuralol 1′-hydroxylase
T3 construct: from tissue; host or cells: ultrapooled human liver microsomes
T3 sequence (P10635 whole entry): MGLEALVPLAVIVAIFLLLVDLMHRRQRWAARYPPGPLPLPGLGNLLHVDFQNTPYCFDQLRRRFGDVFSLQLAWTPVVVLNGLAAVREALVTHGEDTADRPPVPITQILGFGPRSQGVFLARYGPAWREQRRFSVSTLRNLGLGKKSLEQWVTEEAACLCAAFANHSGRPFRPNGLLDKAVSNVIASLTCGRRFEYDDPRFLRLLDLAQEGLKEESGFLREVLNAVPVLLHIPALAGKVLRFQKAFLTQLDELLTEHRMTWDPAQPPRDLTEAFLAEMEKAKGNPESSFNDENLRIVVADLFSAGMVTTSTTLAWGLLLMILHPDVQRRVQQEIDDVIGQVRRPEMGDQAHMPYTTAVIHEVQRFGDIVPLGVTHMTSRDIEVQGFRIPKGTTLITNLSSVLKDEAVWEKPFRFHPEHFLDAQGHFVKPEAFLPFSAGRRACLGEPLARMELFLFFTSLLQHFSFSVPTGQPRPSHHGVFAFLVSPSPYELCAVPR
Description: as §1

[2] = with 30 min NADPH preincubation
[3] = oral 2, 5 and 10 mg/kg, range of the dose-group means

T1 sequence (P11509 whole entry): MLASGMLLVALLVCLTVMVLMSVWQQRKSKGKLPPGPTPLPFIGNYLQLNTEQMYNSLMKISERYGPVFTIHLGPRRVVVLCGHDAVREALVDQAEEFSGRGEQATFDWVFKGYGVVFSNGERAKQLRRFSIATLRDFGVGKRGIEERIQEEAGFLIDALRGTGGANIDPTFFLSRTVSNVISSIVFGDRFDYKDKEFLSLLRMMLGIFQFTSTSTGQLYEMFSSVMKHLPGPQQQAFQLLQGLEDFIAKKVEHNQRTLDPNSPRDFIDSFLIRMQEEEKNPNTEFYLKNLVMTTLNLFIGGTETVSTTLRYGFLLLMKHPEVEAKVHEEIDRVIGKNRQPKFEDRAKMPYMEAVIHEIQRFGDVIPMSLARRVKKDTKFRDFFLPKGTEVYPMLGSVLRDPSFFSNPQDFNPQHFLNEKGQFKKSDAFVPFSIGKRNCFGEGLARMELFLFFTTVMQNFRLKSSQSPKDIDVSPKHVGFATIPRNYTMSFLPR

CC[C@H](C)[C@@H]1NC(=O)CNC(=O)[C@@H]2Cc3c([nH]c4cc(O)ccc34)[S@+]([O-])C[C@H](NC(=O)CNC1=O)C(=O)N[C@@H](CC(=O)O)C(=O)N1C[C@H](O)C[C@H]1C(=O)N[C@@H]([C@@H](C)[C@@H](O)CO)C(=O)N2 [β-amanitin]
IC50 (CYP2A6; [2]): 80.1 µM
IC50 (CYP2A6; without NADPH preincubation): 93.9 µM
IC50 (CYP2C19; [2]): > 100 µM
IC50 (CYP2C19; without NADPH preincubation): > 100 µM
Tmax, range over the oral doses ([1]; oral 2, 5 and 10 mg/kg, range of individual values): 10~120 min
Absolute (oral) bioavailability, range over the oral doses [1, 3]: 7.3–9.4%
t1/2, range over the oral doses [1, 3]: 105.0~132.0 min
bioavailability ([1]; oral gavage 2 mg/kg, n = 7): 9.4 ± 4.9%
Tmax ([1]; oral gavage 2 mg/kg, n = 7): 1 h
bioavailability ([1]; oral gavage 5 mg/kg, n = 9): 8.1 ± 4.3%
Tmax ([1]; oral gavage 5 mg/kg, n = 9): 1.5 h
bioavailability ([1]; oral gavage 10 mg/kg, n = 7): 7.3 ± 3.1%
Tmax ([1]; oral gavage 10 mg/kg, n = 7): 1 h
Cmax ([1]; oral gavage 2 mg/kg in water, n = 7): 67.1 ± 18.6 ng/mL
Cmax ([1]; oral gavage 5 mg/kg in water, n = 9): 140 ± 116 ng/mL
Cmax ([1]; oral gavage 10 mg/kg in water, n = 7): 360 ± 385 ng/mL
half-life ([1]; oral gavage 2 mg/kg, n = 7): 1.75 ± 1.57 h
AUC(0-inf) ([1]; oral gavage 2 mg/kg, n = 7): 191 ng·h/mL
AUC(0-t) ([1]; oral gavage 2 mg/kg, n = 7): 181 ng·h/mL
half-life ([1]; oral gavage 5 mg/kg, n = 9): 2.2 ± 0.838 h
AUC(0-inf) ([1]; oral gavage 5 mg/kg, n = 9): 438 ng·h/mL
AUC(0-t) ([1]; oral gavage 5 mg/kg, n = 9): 391 ng·h/mL
half-life ([1]; oral gavage 10 mg/kg, n = 7): 2.17 ± 1.31 h
AUC(0-inf) ([1]; oral gavage 10 mg/kg, n = 7): 810 ng·h/mL
AUC(0-t) ([1]; oral gavage 10 mg/kg, n = 7): 698 ng·h/mL
IC50 (CYP2D6; [2]): 71.6 µM
IC50 (CYP2D6; without NADPH preincubation): 76.2 µM

Reference: publication PMC9030691, “Toxicokinetics of β-Amanitin in Mice and In Vitro Drug–Drug Interaction Potential” (Pharmaceutics, 2022)
